Drawing on ChEMBL document CHEMBL1134027, “An improved method for the rapid preparation of 2-amino-4,4a-dihydro-4a,7-dimethyl-3H-phenoxazine-3-one, a novel antitumor agent” (2001), this text covers No. of cells for 1 compound.

SMILES strings stand for the structures.

Assay type in all cases: functional
In assay [1] the test system is HL-60. The assay is described as follows: Inhibition of incorporation of [3H]-thymidine into DNA of human myeloid leukemia HL-60 cell at 100 uM after 4 hr.
In assay [2] the test system is HL-60. Nature of the assay: Inhibition of incorporation of [3H]thymidine into DNA of human myeloid leukemia HL-60 cell at 100 uM after 8 hr.
Assay [3] deals with HL-60. Nature of the assay: Inhibition of incorporation of [3H]thymidine into DNA of human myeloid leukemia HL-60 cell at 0 uM after 8 hr.
Assay [4] is described as follows: Inhibition of incorporation of [3H]thymidine into DNA of human lymphoid leukemia HAL-01 cell at 200 uM after 2 hr.
The test system of assay [5] is HL-60. Nature of the assay: Inhibition of incorporation of [3H]thymidine into DNA of human myeloid leukemia HL-60 cell at 200 uM after 4 hr.
The nature of assay [6]: Inhibition of incorporation of [3H]thymidine into DNA of human lymphoid leukemia HAL-01 cell at 100 uM after 2 hr.
A short description of assay [7]: Inhibition of incorporation of [3H]thymidine into DNA of human lymphoid leukemia HAL-01 cell at 0 uM after 1 hr.
In assay [8] the test system is HL-60. Nature of the assay: Inhibition of incorporation of [3H]thymidine into DNA of human myeloid leukemia HL-60 cell at 200 uM after 2 hr.
In assay [9] the test system is HL-60. Nature of the assay: Inhibition of incorporation of [3H]-thymidine into DNA of human myeloid leukemia HL-60 cell at 0 uM after 4 hr.
For assay [10], the system named is HL-60. Nature of the assay: Inhibition of incorporation of [3H]thymidine into DNA of human myeloid leukemia HL-60 cell at 200 uM after 1 hr.
Assay [11] can be described thus: Inhibition of incorporation of [3H]thymidine into DNA of human lymphoid leukemia HAL-01 cell at 0 uM after 8 hr.
Assay [12] deals with HL-60. Nature of the assay: Inhibition of incorporation of [3H]thymidine into DNA of human myeloid leukemia HL-60 cell at 0 uM after 1 hr.
Assay [13] can be described thus: Inhibition of incorporation of [3H]thymidine into DNA of human lymphoid leukemia HAL-01 cell at 200 uM after 8 hr.
The test system of assay [14] is HL-60. Nature of the assay: Inhibition of incorporation of [3H]thymidine into DNA of human myeloid leukemia HL-60 cell at 200 uM after 8 hr.
The nature of assay [15]: Inhibition of incorporation of [3H]thymidine into DNA of human lymphoid leukemia HAL-01 cell at 100 uM after 1 hr.
The nature of assay [16]: Inhibition of incorporation of [3H]thymidine into DNA of human lymphoid leukemia HAL-01 cell at 200 uM after 1 hr.
The subject of assay [17] is HL-60. Nature of the assay: Inhibition of incorporation of [3H]thymidine into DNA of human myeloid leukemia HL-60 cell at 0 uM after 2 hr.
The nature of assay [18]: Inhibition of incorporation of [3H]thymidine into DNA of human lymphoid leukemia HAL-01 cell at 200 uM after 4 hr.
In assay [19] the test system is HL-60. Nature of the assay: Inhibition of incorporation of [3H]thymidine into DNA of human myeloid leukemia HL-60 cell at 100 uM after 2 hr.
Assay [20] is described as follows: Inhibition of incorporation of [3H]thymidine into DNA of human lymphoid leukemia HAL-01 cell at 100 uM after 8 hr.
Assay [21] is described as follows: Inhibition of incorporation of [3H]thymidine into DNA of human lymphoid leukemia HAL-01 cell at 0 uM after 2 hr.
Assay [22] in a line: Inhibition of incorporation of [3H]thymidine into DNA of human lymphoid leukemia HAL-01 cell at 0 uM after 4 hr.
For assay [23], the system named is HL-60. Nature of the assay: Inhibition of incorporation of [3H]thymidine into DNA of human myeloid leukemia HL-60 cell at 100 uM after 1 hr.
The nature of assay [24]: Inhibition of incorporation of [3H]thymidine into DNA of human lymphoid leukemia HAL-01 cell at 100 uM after 4 hr.

As for `Cc1ccc2c(c1)OC1(C)CC(=O)C(N)=CC1=N2` (centres undefined), the No. of cells is given as 15000 in the assay with HL-60 [1]; 19000 in the assay on HL-60 [2]; 35000 with HL-60 [3]; 9000 in assay [4]; 9000 with HL-60 [5]; 17000 in assay [6]. For the same compound, the No. of cells was 0 in [7]; 6000 in the assay with HL-60 [8]; 25000 with HL-60 [9]; 0 in the assay on HL-60 [10]; 40000 in assay [11]; 0 in the assay on HL-60 [12]. The No. of cells in assay [13] came to 14000; in the assay on HL-60 [14], 12000; in [15] it was 0; in [16], 0; in the assay on HL-60 [17], 21000; in assay [18], 10000. Besides, the No. of cells with HL-60 [19] amounted to 14000; in assay [20] it was 19000; in [21], 25000; in assay [22], 34000; in the assay with HL-60 [23], 0; in assay [24], 18000.
